Measurements taken from ChEMBL document CHEMBL3045538, “Amino acid chemistry in crop protection” (2010).
Values after ≈ are worked out from the molar mass of the structure shown.

Legend:
Format in all cases: functional
Digitaria sanguinalis = assay: Post-emergence herbicidal activity against Digitaria sanguinalis (hairy crabgrass)
Ipomoea purpurea = assay: Post-emergence herbicidal activity against Ipomoea purpurea (common morning-glory)
Setaria viridis = assay: Post-emergence herbicidal activity against Setaria viridis (green foxtail)
Echinochloa crus-galli = assay: Post-emergence herbicidal activity against Echinochloa crus-galli (barnyard grass)
Abutilon theophrasti = assay: Post-emergence herbicidal activity against Abutilon theophrasti (velvetleaf)
Phytophthora infestans = assay: Fungicidal activity against Phytophthora infestans
Plasmopara viticola = assay: Fungicidal activity against Plasmopara viticola

| SMILES | ED85 (Digitaria sanguinalis) [g/ha] | ED85 (Ipomoea purpurea) [g/ha] | ED85 (Setaria viridis) [g/ha] | ED85 (Echinochloa crus-galli) [g/ha] | ED85 (Abutilon theophrasti) [g/ha] | EC80 (Phytophthora infestans) [µg/mL] | EC80 (Plasmopara viticola) [µg/mL] |
| --- | --- | --- | --- | --- | --- | --- | --- |
| CCn1nnc2ccc(Oc3c(F)cc(C(F)(F)F)cc3Cl)cc21 | >500 | <32 | >500 | >500 | <32 | – | – |
| C=CCC(NS(C)(=O)=O)C(=O)NCCc1ccc(OCC#CCC)c(OC)c1 (racemic) | – | – | – | – | – | 9 (≈ 22 µM) | 49 (≈ 120 µM) |
| CC(C(N)=O)n1nnc2ccc(Oc3c(F)cc(C(F)(F)F)cc3Cl)cc21 (centres undefined) | 63 | <32 | 63 | 125 | <32 | – | – |
| COC(=O)CCn1nnc2ccc(Oc3c(F)cc(C(F)(F)F)cc3Cl)cc21 | <32 | <32 | 250 | 125 | <32 | – | – |
| C#CCn1nnc2ccc(Oc3c(F)cc(C(F)(F)F)cc3Cl)cc21 | 500 | <32 | 63 | 250 | 250 | – | – |
| CCC#CCOc1ccc(CCNC(=O)CNS(C)(=O)=O)cc1OC | – | – | – | – | – | 148 (≈ 402 µM) | > 200 |
| COC(=O)Cn1nnc2ccc(Oc3c(F)cc(C(F)(F)F)cc3Cl)cc21 | >8 | 0.5 | 2 | 4 | >8 | – | – |
| CCC#CCOc1ccc(CCNC(=O)[C@H](CCC)NS(C)(=O)=O)cc1OC | – | – | – | – | – | 60 (≈ 146 µM) | 20 (≈ 48.7 µM) |
| CCC#CCOc1ccc(CCNC(=O)[C@@H](NS(C)(=O)=O)[C@@H](C)CC)cc1OC | – | – | – | – | – | 3 (≈ 7.07 µM) | 2 (≈ 4.71 µM) |
| CCC#CCOc1ccc(CCNC(=O)[C@H](CCC(=O)O)NS(C)(=O)=O)cc1OC | – | – | – | – | – | > 200 | > 200 |
| CCC#CCOc1ccc(CCNC(=O)[C@@H](NS(C)(=O)=O)[C@@H](C)O)cc1OC | – | – | – | – | – | 148 (≈ 359 µM) | 109 (≈ 264 µM) |
| CCC#CCOc1ccc(CCNC(=O)[C@H](CCSC)NS(C)(=O)=O)cc1OC | – | – | – | – | – | > 200 | > 200 |
| CCC#CCOc1ccc(CCNC(=O)[C@@H](NS(C)(=O)=O)C(C)C)cc1OC | – | – | – | – | – | 8 (≈ 19.5 µM) | 2 (≈ 4.87 µM) |
| Fc1cc(C(F)(F)F)cc(Cl)c1Oc1ccc2nn[nH]c2c1 | 250 | <32 | >500 | >500 | 250 | – | – |
| CC(C(=O)O)n1nnc2ccc(Oc3c(F)cc(C(F)(F)F)cc3Cl)cc21 (centres undefined) | 8 | <0.5 | 1 | 4 | 1 | – | – |
| CCC#CCOc1ccc(CCNC(=O)C(NS(C)(=O)=O)C(CC)CC)cc1OC (racemic) | – | – | – | – | – | 16 (≈ 36.5 µM) | 16 (≈ 36.5 µM) |
| CCC#CCOc1ccc(CCNC(=O)[C@H](C)NS(C)(=O)=O)cc1OC | – | – | – | – | – | > 200 | > 200 |
| COC(=O)[C@H](C)n1nnc2ccc(Oc3c(F)cc(C(F)(F)F)cc3Cl)cc21 | 125 | <32 | 125 | 63 | <32 | – | – |
| CCC#CCOc1ccc(CCNC(=O)[C@H](CC(C)C)NS(C)(=O)=O)cc1OC | – | – | – | – | – | 12 (≈ 28.3 µM) | 18 (≈ 42.4 µM) |
| CCC#CCOc1ccc(CCNC(=O)C(NS(C)(=O)=O)c2ccc(Cl)cc2)cc1OC (racemic) | – | – | – | – | – | 20 (≈ 41.8 µM) | 15 (≈ 31.3 µM) |
